Measured values as given in PubChem BioAssay (NCI).
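Each compound was tested at five concentrations against cells in 96-well plates for 48 hours. GI50: concentration for 50% inhibition of growth. The concentration for full growth arrest is given as TGI.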

How the values were obtained:
Assay in all cases: growth of human tumour cells (NCI), 48 h
[1] = system: IGROV1 ovarian
[2] = system: A498 renal
[3] = system: NCI/ADR-RES ovarian
[4] = system: MOLT-4 leukemia
[5] = system: SNB-75 CNS
[6] = system: LOX IMVI melanoma
[7] = system: HL-60(TB) leukemia
[8] = system: RPMI-8226 leukemia
[9] = system: EKVX NSCLC
[10] = system: OVCAR-8 ovarian
[11] = system: UACC-257 melanoma
[12] = system: MALME-3M melanoma
[13] = system: SK-OV-3 ovarian
[14] = system: SF-539 CNS
[15] = system: MDA-N
[16] = system: NCI-H23 lung
[17] = system: SNB-78 CNS
[18] = system: M19-MEL melanoma

Row | Structure (SMILES) | TGI [1] [µM] | TGI [2] [µM] | TGI [3] [µM] | TGI [4] [µM] | TGI [5] [µM] | TGI [6] [µM] | TGI [7] [µM] | TGI [8] [µM] | TGI [9] [µM] | TGI [10] [µM] | TGI [11] [µM] | TGI [12] [µM] | TGI [13] [µM] | TGI [14] [µM] | TGI [15] [µM] | TGI [16] [µM] | GI50 [17] [µM] | TGI [17] [µM] | GI50 [18] [µM] | TGI [18] [µM]
1 | NC(=O)NC1NC(=O)NC1=O (stereo not given) | > 100 | > 100 | > 100 | > 100 | > 100 | > 100 | > 100 | > 100 | > 100 | > 100 | > 100 | > 100 | > 100 | > 100 | > 100 | > 100 |  |  |  | 
2 | CCOC(=O)C1(CO)CSCCSC1 |  | > 100 | > 100 | > 100 | > 100 | > 100 |  |  |  | > 100 | > 100 |  | > 100 |  | > 100 | > 100 |  |  |  | 
3 | N=C1C(=N)c2ccccc2-c2ccccc21.[Cl-].[Ru+2].c1cnc2c(c1)ccc1cccnc12.c1cnc2c(c1)ccc1cccnc12 | 72.6 |  |  | 96.9 | > 100 | 75.1 | 54 |  | 93.5 | 95.6 | 46.6 | 73.6 | > 100 | 57.8 |  | > 100 | 39.2 | > 100 | 24.6 | > 100
4 | CCOC(=O)/C=C/CC(C)(C)COC(C)=O |  |  | > 10 | > 10 | > 10 | > 10 | > 10 | > 10 |  |  | > 10 |  | > 10 |  | > 10 | > 10 |  |  |  | 
5 | CC(=O)c1c(-c2ccc(Cl)cc2)c(-c2ccc(Cl)cc2)n[nH]c1=O | > 100 | 77.4 | > 100 | > 100 |  | 73.9 | 68.8 | 55.4 | > 100 | > 100 | > 100 | 79 | > 100 | 64.2 | > 100 | > 100 |  |  |  | 
6 | C=C(C)C1CC=C(C)C(=O)C1 (stereo not given) | > 100 |  | > 100 | > 100 | > 100 | > 100 | > 100 | > 100 | > 100 | > 100 | > 100 | > 100 |  | > 100 | > 100 | > 100 |  |  |  | 
7 | CCC(C)C(=O)OC1C(=O)OC2CC3C(C)=CC(=O)C(O)C3(C)C3C4(O)OCC23C1C(C)C4O (stereo not given) | 0.175 | 3.3 | 6.47 |  | 0.113 | 0.0154 |  | 0.784 |  | 0.0634 | 1.34 | < 0.021 | 4.11 | 0.0315 | 0.232 | 0.0431 |  |  |  | 
8 | Cc1[nH]c(=O)[nH]c(=O)c1/C=C/C(=O)NC(CO)CC(C)C (stereo not given) | > 375 | > 375 | > 375 | > 211 | > 375 | > 375 | > 375 | > 375 | > 375 | > 237 | > 375 | > 375 | > 375 | > 375 |  | > 375 |  | > 375 |  | > 375
9 | COc1ccc(C2C(C(=O)O)=C(CO)Oc3cc4c(cc32)OCO4)cc1 (stereo not given) | > 100 |  |  |  | > 100 | > 100 |  | > 100 | > 100 | > 100 | > 100 | > 100 | > 100 |  |  | > 100 |  | > 100 |  | > 100
10 | NCC(Cl)C(O)c1cnc(N)[nH]1 (stereo not given) | 4.34 | 1.01 | > 100 | 2.65 | 38.8 | 16.8 | 25.4 | 2.15 | 8.53 | 15.5 | 32 | 11.2 | > 44.6 | 5.85 |  | 16 |  | > 90.9 |  | 29.8
